Measured values as given in the NIST ThermoML archive (doi:10.1021/je049912x).

Legend:
[1] = xn = mol fraction of the nth substance listed; conditions: 101.33 kPa, Liquid
[2] = 101.33 kPa, Liquid

CCc1ccccc1 [ethylbenzene] + CCCO
[1]
Conditions	mass density, 298.15 K [kg/m3]	mass density, 308.15 K [kg/m3]	speed of sound, 298.15 K [m/s]	speed of sound, 308.15 K [m/s]	viscosity, 298.15 K [mPa·s]	viscosity, 308.15 K [mPa·s]
x1 = 0.109	811.4	803.7	1227	1194	1.543	1.226
x1 = 0.1677	817.3	807.1	1233	1202	1.375	1.098
x1 = 0.3777	828.5	823.5	1257	1224	0.976	0.809
x1 = 0.5006	837.9	833.1	1266	1233	0.839	0.702
x1 = 0.6429	845.1	839	1277	1245	0.712	0.616
x1 = 0.8074	853.3	844.3	1287	1258	0.638	0.562
x1 = 0.8951	857	850	1299	1264	0.606	0.542
x1 = 1	862	855.5	1312	1276	0.628	0.553

CCc1ccccc1 [ethylbenzene] + CCO
[1]
Conditions	mass density, 298.15 K [kg/m3]	mass density, 308.15 K [kg/m3]	speed of sound, 298.15 K [m/s]	speed of sound, 308.15 K [m/s]	viscosity, 298.15 K [mPa·s]	viscosity, 308.15 K [mPa·s]
x1 = 0.0712	795	789.6	1170	1133	1.026	0.856
x1 = 0.1551	807.2	801.6	1185	1155	0.947	0.788
x1 = 0.2404	817.6	811.7	1203	1173	0.864	0.719
x1 = 0.352	827	820	1228	1195	0.789	0.656
x1 = 0.4053	836	823.2	1235	1203	0.764	0.629
x1 = 0.553	842.3	835.8	1261	1223	0.684	0.587
x1 = 0.7382	853.6	842.8	1278	1250	0.639	0.548
x1 = 0.8805	858.5	851.2	1291	1266	0.623	0.544
x1 = 1	862	855.5	1312	1276	0.628	0.553

CCCO [propan-1-ol]
[2]
Conditions	mass density [kg/m3]	speed of sound [m/s]	viscosity [mPa·s]
298.15 K	799.6	1213	2.042
308.15 K	792	1182	1.565

CCCO [propan-1-ol] + CCc1ccccc1
[1], x2 = 0
Conditions	mass density [kg/m3]	speed of sound [m/s]	viscosity [mPa·s]
298.15 K	799.6	1213	2.042
308.15 K	792	1182	1.565
